Assay results published in patent US20020198254A1, “Polyamide analogs” (priority 2000, published 2002).
In brackets after ≈: the same amount, converted by molar mass. Where two headings read alike, the source gives them in different places.

Assays:
Format in all cases: cell-based
[1] = tested on: WST-CEM T-cell line; experiment: Toxicity screen on WST-CEM T-cell line
Method: Toxicity screen was done on a WST-CEM T-cell line and the minimum percent verses a no drug control was measured.

[2] = tested on: Bacillus cereus; experiment: MIC assay, B. cereus; details: CAMHB, 16 h; for MIC: Bacillus cereus, read-out: MIC Assay Other Strains: B. cereus
Method: (§1) These assays are adapted from NCCLS protocols M7-A4 and M27-A (NCCLS vol 17:9 and vol 17:2) as modified by Sandven, S. Clin. Micro. (1999) 37:12, p.3856-3859. MIC values for Aspergillus fumigatus were determined using NCCLS protocol M38-P.
(§2) All compounds were dissolved in 100% DMSO to a stock concentration of 10 mM and use fresh or stored at −80° C. Stock compounds were kept frozen until needed and used freshly with no more then one freeze-thaw cycle. When used for test purposes, compounds were diluted in the appropriate media depending on the organism being tested.
(§3) For yeast and aspergillus species, seven 1:2 serial dilutions of compound in appropriate media buffered with MOPS at pH 7.0 were prepared such that the final starting test compound concentrations were 50.0 uM for yeast and 50 uM aspergillus species. For bacteria, dilutions were made in growth media used for the particular bacteria being tested.
(§4) Inoculums are made in the same manner as yeast except all dilutions are made in normal saline, with a final dilution of 1:200 and an inoculum of 10 μL. VRE are vancomycin resistant enterococci, BM4147 and UCD-3 represent two different sources of VRE. MRSA are […] resistant Staphylococcus Aureus.

[3] = tested on: VRE-UCD3 (vancomycin resistant enterococci); experiment: MIC assay, VRE strain UCD-3; details: 25 μg/mL Vancomycin - 24 h; for MIC: Enterococcus, VRE, read-out: MIC Assay VRE Strains: UCD-3 van25
Method: as §1, §2, §3, §4

[4] = tested on: Aspergillus fumigatus; experiment: MIC assay, filamentous fungi A. fumigatus; details: 48 h at 35C, no visible growth; for MIC: Aspergillus fumigatus
[5] = tested on: E coli; experiment: MIC assay, E coli
Method: as §1, §2, §3, §4

[6] = tested on: Staphylococcus aureus; experiment: MIC assay, S. aureus; details: CAMHB, 16 h
Method: as §1, §2, §3, §4

[7] = tested on: Pseudomonas aeruginosa; experiment: MIC assay, P. aeruginosa; details: CAMHB, 16 h
Method: as §1, §2, §3, §4

[8] = tested on: VRE-BM4147 (vancomycin resistant enterococci); experiment: MIC assay, VRE strain BM4147; details: 25 μg/mL Vancomycin - 24 h; for MIC: Enterococcus, VRE, read-out: MIC Assay VRE Strains: BM4147 van25
Method: as §1, §2, §3, §4

[9] = tested on: Candida albicans; experiment: MIC assay, yeast C. albicans; details: RPMI, 48 h, Alamar Blue; for MIC: Candida albicans
[10] = tested on: MRSA (methylacillin resistant Staphylococcus Aureus); experiment: MIC assay, MRSA; details: for MIC: Staphylococcus aureus, MRSA
Method: as §1, §2, §3, §4

[11] = WST-CEM T-cell line, ND = no drug control

Molecule | CEM: toxicity screen, minimum percent verses a no drug control [1, 11] [% ND] | MIC [3] [µM] | MIC [4] [µM] | MIC [5] [µM] | MIC Assay Other Strains: S. aureus [6] [µM] | MIC Assay Other Strains: P. aeruginosa [7] [µM] | MIC Assay Other Strains: B. cereus [2] [µM] | MIC Assay VRE Strains: UCD-3 van25 [3] [µM] | MIC Assay VRE Strains: BM4147 van25 [8] [µM] | MIC Assay C. Albicans [9] [µM] | MIC Assay A fumigatus [4] [µM] | MIC Assay E coli [5] [µM] | other results
CC(C)CCn1cc(NC(=O)CNC(=N)N)cc1C(=O)Nc1ccc2ccc(NC(=O)c3cc(NC(=O)CNC(=N)N)cn3CCC(C)C)cc2c1 [Compound 189b] | 10.2 | 5.7 | 3.1 (≈ 2.21 µg/mL) | 45.5 (≈ 32.4 µg/mL) |  |  |  |  |  |  |  |  | MIC [2]: 2.8 µM (≈ 2 µg/mL)
Cn1cc(NC(=O)CNC(=N)N)cc1C(=O)Nc1ccc2[nH]c(NC(=O)c3cc(NC(=O)CNC(=N)N)cn3C)nc2c1 [Compound 79] |  |  |  |  | >45.5 | >45.5 | 11.4 (≈ 6.73 µg/mL) | 11.4 | 45.5 |  |  |  | 
1,5-bis-{4-[(NH2(CH2)2CONH)-1-methyl-1H-pyrrol-2-yl-carbonylamino]-benzimidazole [Compound 77] |  |  |  |  | 45.5 | >45.5 | 22.7 | >45.5 | >45.5 | >44.4 |  |  | 
CC(C)CCn1cc(NC(=O)CNC(=N)N)cc1C(=O)Nc1ccc(NC(=O)c2cc(NC(=O)CNC(=N)N)cn2CCC(C)C)cc1 [Compound 189a] | 7.7 | 11.4 | 12.5 (≈ 8.28 µg/mL) | 11.4 (≈ 7.56 µg/mL) |  |  |  |  |  |  |  |  | MIC [9]: 22.2 µM (≈ 14.7 µg/mL); MIC [2]: 2.8 µM (≈ 1.86 µg/mL); MIC [8]: 11.4 µM
NCCCC(N)C(=O)N1CCCC1C(=O)Nc1cc(C(=O)NC2CCC(NC(=O)c3cc(NC(=O)C4CCCN4C(=O)C(N)CCCN)cn3CC3CC3)CC2)n(CC2CC2)c1 (stereo not drawn) [Compound 172, Bis-trans-1,4-{[4-(2,5-diamino-pentanoyl)pyrrolidine-2-carbonyl-amino]-1-cyclopropylmethyl-1H-pyrrol-2-yl-carbonylamino}cyclohexane] |  |  |  |  |  |  |  | >45.5 | >45.5 | >44.4 | >50 | >45.5 | CEM: toxicity screen, minimum percent verses a no drug control [1]: 25.5% ND; MIC Assay MRSA [10]: >45.5 µM
1,5-bis-{4-[(NH2(CH2)3CONH)-1-methyl-1H-pyrrol-2-yl-carbonylamino]-benzimidazole [Compound 78] |  |  |  |  | 45.5 | >45.5 | 22.7 | >45.5 | >45.5 |  |  |  | 
CC(C)CCn1cc(NC(=O)CN)cc1C(=O)Nc1ccc(NC(=O)c2cc(NC(=O)CN)cn2CCC(C)C)cc1 [Compound 188a] | 6.9 |  |  |  |  |  | 22.7 (≈ 13.1 µg/mL) | 11.4 | 11.4 | >44.4 | >50 | 22.7 (≈ 13.1 µg/mL) | MIC Assay MRSA [10]: 11.4 µM (≈ 6.6 µg/mL)
Cn1cc(NC(=O)CCNC(=N)N)cc1C(=O)Nc1ccc2[nH]c(NC(=O)c3cc(NC(=O)CCNC(=N)N)cn3C)nc2c1 [Compound 80] |  |  |  |  | >45.5 | >45.5 | 5.7 (≈ 3.53 µg/mL) | >45.5 | >45.5 | >44.4 |  |  | 
O=C(NC1CCC(NC(=O)c2cc(NC(=O)C3CCCN3)cn2CC2CC2)CC1)c1cc(NC(=O)C2CCCN2)cn1CC1CC1 (stereo not drawn) [Compound 171, Bis-trans-1,4-[4-(pyrrolidine-2-carbonyl-amino)-1-cyclopropylmethyl-1H-pyrrol-2-yl-carbonylamino]cyclohexane] | 91.1 | > 45.5 | > 50 | > 45.5 |  |  |  |  |  |  |  |  | MIC [9]: > 44.4 µM; MIC [10]: > 45.5 µM; MIC [8]: > 45.5 µM
1,5-bis-{4-[(NH2CH2CONH)-1-methyl-1H-pyrrol-2-yl-carbonylamino]-benzimidazole [Compound 76] |  |  |  |  | >45.5 | >45.5 | >45.5 | >45.5 | >45.5 | >44.4 |  |  | 
N=C(N)NCC(=O)Nc1cc(C(=O)NCCNC(=O)c2cc(NC(=O)CNC(=N)N)cn2CC2CC2)n(CC2CC2)c1 [Compound 174] | 92.9 | > 45.5 | > 50 | > 45.5 |  |  |  |  |  |  |  |  | MIC [9]: > 44.4 µM; MIC [10]: > 45.5 µM; MIC [8]: > 45.5 µM
Cn1cc(NC(=O)CCCNC(=N)N)cc1C(=O)Nc1ccc2[nH]c(NC(=O)c3cc(NC(=O)CCCNC(=N)N)cn3C)nc2c1 [Compound 81] |  |  |  |  | 45.5 (≈ 29.4 µg/mL) | >45.5 | 5.7 (≈ 3.69 µg/mL) | >45.5 | >45.5 | 22.2 (≈ 14.4 µg/mL) |  |  | 
NC(Cc1c[nH]cn1)C(=O)Nc1cc(C(=O)NC2CCC(NC(=O)c3cc(NC(=O)C(N)Cc4c[nH]cn4)cn3CC3CC3)CC2)n(CC2CC2)c1 (stereo not drawn) [Compound 173, Bis-trans-1,4-{4-[2-amino-3-(1H-imidazol-4-yl)propyonylamino]-1-cyclopropylmethyl-1H-pyrrol-2-yl-carbonylamino]cyclohexane] |  |  |  |  |  |  |  | >45.5 | >45.5 | >44.4 | >50 | >45.5 | CEM: toxicity screen, minimum percent verses a no drug control [1]: 87.2% ND; MIC Assay MRSA [10]: >45.5 µM
CC/N=C(/NCCN(C)C)Nc1cc(C(=O)Nc2ccc(NC(=O)c3cc(N/C(=N/CC)NCCN(C)C)cn3CCC(C)C)cc2)n(CCC(C)C)c1 [Compound 191] | 3.7 | 11.4 | 12.5 (≈ 9.34 µg/mL) | 22.7 (≈ 17 µg/mL) |  |  |  |  |  |  |  |  | MIC [9]: 11.1 µM (≈ 8.29 µg/mL); MIC [2]: 5.7 µM (≈ 4.26 µg/mL)
CC(C)C(N)C(=O)Nc1cc(C(=O)NCCNC(=O)c2cc(NC(=O)C(N)C(C)C)cn2CC2CC2)n(CC2CC2)c1 (stereo not shown) [Compound 170, Bis-1,2-[4-(2-amino-3-methyl-butyrylamino)-1-cyclopropylmethyl-1H-pyrrol-2-yl-carbonylamino]-ethane] |  |  |  |  |  |  |  | >45.5 | >45.5 | >44.4 | >50 | >45.5 | CEM: toxicity screen, minimum percent verses a no drug control [1]: 90.0% ND; MIC Assay MRSA [10]: >45.5 µM
CC(C)CCn1cc(NC(=O)CN)cc1C(=O)Nc1ccc2ccc(NC(=O)c3cc(NC(=O)CN)cn3CCC(C)C)cc2c1 [Compound 188b] | 9.2 |  |  |  |  |  | 22.7 (≈ 14.3 µg/mL) |  |  | 22.2 (≈ 14 µg/mL) | >50 | 22.7 (≈ 14.3 µg/mL) | 
